Measurements: patent US20200017495A1, “NOVEL HETEROCYCLIC COMPOUNDS AND THEIR USE IN PREVENTING OR TREATING BACTERIAL INFECTIONS” (priority 2017, published 2020)
Read-outs that look alike come from different tables or passages of the source.

How the values were obtained:
Assay in all cases: MIC of compounds alone and combined with antibacterials, broth microdilution (CLSI)
Assay type in all cases: cell-based
[1] = system: Klebsiella pneumoniae (KPN) isolates; details: Klebsiella pneumoniae, read-out: MIC
How it was run: (§1)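 First, log-phase suspensions are brought to 5.10^5 CFU/mL final in ca-MHB; plates then incubate 16-20 h at 35° C in air. Growth is judged visually, giving the compound MIC alone and the antibacterial MIC at each compound concentration.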

[2] = system: Serratia marcescens (SMA) isolates; details: Serratia marcescens, read-out: MIC
How it was run: as §1

[3] = system: Citrobacter freundii (CFR) isolates; details: Citrobacter freundii
How it was run: as §1

[4] = system: Klebsiella oxytoca (KOX) isolates; details: Klebsiella oxytoca, alone, read-out: MIC
How it was run: as §1

[5] = system: Providencia rettgeri (PRE) isolates; details: Providencia rettgeri, read-out: MIC
How it was run: as §1

Compound `O=C1N2CC(c3ncco3)=CC(C2)N1OC(F)(F)C(=O)[O-].[Li+]` (stereo not shown) [AF2] has an MIC ([1]; BAA1898, KPN BAA-1898, alone) of 8 mg/L, an MIC ([1]; KPN 6299, alone) of 16 mg/L and an MIC ([1]; KPN 110376, alone) of 8 mg/L. It also gave an MIC ([1]; KPN 121206, alone) of 16 mg/L, an MIC ([1]; KPN 131119, alone) of 8 mg/L and an MIC ([1]; KPN 140513, alone) of 32 mg/L. The MIC ([1]; KPN 160143, alone) was 8 mg/L, the MIC ([1]; KPN 190128, alone) was 16 mg/L and the MIC ([1]; KPN 190270, alone) was 16 mg/L. The MIC ([1]; KPN 190425, alone) was 16 mg/L, the MIC ([1]; KPN 190551, alone) was 4 mg/L and the MIC ([1]; KPN 200047, alone) was 4 mg/L. It also gave an MIC ([1]; KPN 200327, alone) of 4 mg/L, an MIC ([1]; KPN 260251, alone) of 16 mg/L and an MIC ([1]; KPN 260252, alone) of 16 mg/L. For the same compound, the MIC ([1]; KPN 260376, alone) was 4 mg/L, the MIC ([1]; KPN 270077, alone) was greater than 32 mg/L and the MIC ([1]; KPN 700603, alone) was 32 mg/L. For the same compound, the MIC ([1]; KPN ARA, alone) was 8 mg/L, the MIC ([1]; KPN LIB, alone) was 8 mg/L and the MIC ([1]; KPN UFR22_O, alone) was 8 mg/L. It also gave an MIC ([1]; KPN UFR23, alone) of 16 mg/L, an MIC ([1]; KPN UFR24, alone) of 16 mg/L and an MIC ([1]; KPN UFR25, alone) of 8 mg/L. For the same compound, the MIC ([1]; KPN UFR27, alone) was 16 mg/L, the MIC ([1]; KPN UFR43, alone) was 8 mg/L and the MIC ([1]; KPN UFR46, alone) was 32 mg/L. For the same compound, the MIC ([1]; KPN UFR53, alone) was 16 mg/L, the MIC ([1]; KPN UFR68, alone) was 16 mg/L and the MIC ([1]; KPN UFR76, alone) was greater than 32 mg/L. For the same compound, the MIC ([1]; KPN UFR77, alone) was 8 mg/L, the MIC ([1]; KPN UFR78, alone) was 32 mg/L and the MIC ([1]; KPN UFR79, alone) was 16 mg/L. For the same compound, the MIC ([1]; KPN UFR80, alone) was 16 mg/L, the MIC ([1]; KPN UFR81, alone) was 16 mg/L and the MIC ([1]; KPN UFR215, alone) was 32 mg/L. It also gave an MIC ([1]; KPN UFR216, alone) of 8 mg/L, an MIC ([1]; KPN UFR217, alone) of 8 mg/L and an MIC ([1]; KPN UFR218, alone) of 4 mg/L. For the same compound, the MIC ([1]; KPN UFR222, alone) was 8 mg/L, the MIC ([1]; KPN UFR227O, alone) was greater than 32 mg/L and the MIC ([1]; strain KPN 140347, compound alone) was 32 mg/L. It also gave an MIC ([1]; strain KPN UFR162, compound alone) of 16 mg/L, an MIC ([1]; strain KPN UFR163, compound alone) of 16 mg/L and an MIC ([1]; strain KPN UFR164, compound alone) of 16 mg/L. The MIC ([1]; strain KPN UFR165, compound alone) was 16 mg/L, the MIC ([1]; strain KPN UFR166, compound alone) was 32 mg/L and the MIC ([1]; strain KPN UFR167, compound alone) was greater than 32 mg/L. The MIC ([1]; strain KPN UFR168, compound alone) was 16 mg/L, the MIC ([1]; strain KPN UFR169, compound alone) was greater than 32 mg/L and the MIC ([1]; strain KPN UFR170, compound alone) was 16 mg/L. The MIC ([1]; strain KPN UFR171, compound alone) was 8 mg/L, the MIC ([1]; strain KPN UFR172, compound alone) was 8 mg/L and the MIC ([1]; strain KPN UFR229O, compound alone) was 16 mg/L. For the same compound, the MIC ([2]; SMA UFR30, alone) was 16 mg/L, the MIC ([2]; SMA UFR134, alone) was 16 mg/L and the MIC ([2]; SMA UFR135, alone) was greater than 32 mg/L. For the same compound, the MIC ([2]; SMA UFR136, alone) was greater than 32 mg/L, the MIC ([2]; SMA UFR137, alone) was 16 mg/L and the MIC ([2]; SMA UFR138, alone) was 16 mg/L. It also gave an MIC ([2]; SMA UFR139, alone) greater than 32 mg/L, an MIC ([2]; SMA UFR141, alone) greater than 32 mg/L and an MIC ([2]; SMA UFR142, alone) of 32 mg/L. For the same compound, the MIC ([2]; SMA UFR143, alone) was 32 mg/L, the MIC ([2]; SMA UFR239, alone) was 32 mg/L and the MIC ([2]; strain SMA UFR140, compound alone) was greater than 32 mg/L. It also gave an MIC ([2]; strain SMA UFR238, compound alone) of 16 mg/L, an MIC ([3]; CFR UFR10, alone) of 4 mg/L and an MIC ([3]; CFR UFR11, alone) greater than 32 mg/L. It also gave an MIC ([3]; CFR UFR37, alone) of 4 mg/L, an MIC ([3]; CFR UFR83, alone) greater than 32 mg/L and an MIC ([3]; CFR UFR146, alone) of 32 mg/L. For the same compound, the MIC ([3]; CFR UFR248, alone) was 8 mg/L, the MIC ([3]; strain CFR UFR147, compound alone) was 8 mg/L and the MIC ([3]; strain CFR UFR148, compound alone) was 8 mg/L. The MIC ([3]; strain CFR UFR251, compound alone, read-out: MIC) was 16 mg/L, the MIC ([3]; strain CFR UFR254, compound alone) was 4 mg/L and the MIC ([4]; KOX UFR21) was 16 mg/L. For the same compound, the MIC ([4]; KOX UFR173) was 16 mg/L, the MIC ([4]; KOX UFR223) was 8 mg/L and the MIC ([4]; KOX UFR224) was 8 mg/L. For the same compound, the MIC ([5]; PRE UFR99, alone) was 16 mg/L, the MIC ([5]; strain PRE UFR96, compound alone) was 8 mg/L and the MIC ([5]; strain PRE UFR97, compound alone) was greater than 32 mg/L. The MIC ([5]; strain PRE UFR236, compound alone) was 32 mg/L.
